Reference: patent US20240366536A1, “MODULATORS OF A POTASSIUM CHANNEL AND OF TRPV1 CHANNEL AND USES THEREOF” (Bsense Bio Therapeutics Ltd., priority 2022, published 2024)
≈ marks a conversion by molar mass, not a printed value. Read-outs that look alike come from different tables or passages of the source.

Columns and labels:
[1] = Solubility assay (kinetic solubility); type: physicochemical; set-up: Kinetic Sol.: unit not given here
hERG [2] = biological target: T1, hERG (Homo sapiens (Human), UniProt Q12809); test: in vitro; settings: hamster, CHO cells that express human hERG
T1 sequence (Q12809 whole entry): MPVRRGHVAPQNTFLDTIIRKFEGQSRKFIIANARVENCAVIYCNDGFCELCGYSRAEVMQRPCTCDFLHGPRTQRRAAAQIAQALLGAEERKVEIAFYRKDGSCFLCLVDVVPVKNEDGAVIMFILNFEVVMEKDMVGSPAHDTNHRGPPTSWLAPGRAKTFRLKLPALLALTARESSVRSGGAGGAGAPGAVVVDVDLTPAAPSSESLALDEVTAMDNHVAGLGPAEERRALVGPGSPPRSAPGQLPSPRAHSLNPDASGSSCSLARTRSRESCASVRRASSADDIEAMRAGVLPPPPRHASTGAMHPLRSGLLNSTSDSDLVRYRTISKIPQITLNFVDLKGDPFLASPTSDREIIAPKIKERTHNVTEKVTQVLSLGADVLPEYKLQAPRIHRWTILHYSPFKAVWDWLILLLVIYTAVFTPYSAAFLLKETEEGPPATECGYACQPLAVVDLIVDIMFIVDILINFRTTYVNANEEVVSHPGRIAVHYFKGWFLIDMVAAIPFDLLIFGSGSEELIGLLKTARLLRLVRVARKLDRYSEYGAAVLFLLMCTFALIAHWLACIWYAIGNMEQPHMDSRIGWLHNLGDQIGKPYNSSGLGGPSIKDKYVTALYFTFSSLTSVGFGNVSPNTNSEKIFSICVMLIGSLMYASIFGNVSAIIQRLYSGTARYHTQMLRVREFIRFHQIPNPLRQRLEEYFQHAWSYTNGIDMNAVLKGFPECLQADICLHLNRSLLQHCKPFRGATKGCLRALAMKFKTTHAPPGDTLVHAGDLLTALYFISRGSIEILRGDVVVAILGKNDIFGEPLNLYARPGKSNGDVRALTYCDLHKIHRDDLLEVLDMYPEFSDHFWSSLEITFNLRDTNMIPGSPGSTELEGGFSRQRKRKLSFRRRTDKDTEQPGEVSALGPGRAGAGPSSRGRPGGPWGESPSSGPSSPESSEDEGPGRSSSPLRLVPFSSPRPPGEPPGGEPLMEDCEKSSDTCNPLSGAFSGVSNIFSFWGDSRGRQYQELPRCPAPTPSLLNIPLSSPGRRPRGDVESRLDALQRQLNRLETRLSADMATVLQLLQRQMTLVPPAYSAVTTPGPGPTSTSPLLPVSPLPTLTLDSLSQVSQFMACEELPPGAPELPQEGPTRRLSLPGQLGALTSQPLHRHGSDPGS

[3] = test system: primary neonatal rat DRG neurons; test: Rat DRG neuron firing, current-induced and capsaicin-induced (current clamp); type: cell-based
Excerpt: rDRGs isolation and primary cell culture: Briefly, rat DRGs from all spinal levels were carefully removed and collected in HBSS on ices, connective tissue of the epineurium surrounding the ganglion was removed and cells were dissociated using Collagenase-II and trypsin dissociation solutions. DRGs were dissociated further, passed through glass Pasteur pipettes to obtain single cells. Then dissociation solution was changed to 5% FBS containing DRG neuronal culture medium and plated onto ECL coated 12 mm cover glass.
Additional rDRGs experiments were performed using Lonza primary neonatal rat (Sprague Dawley neonatal; P2,3) DRG neurons (R-DRG-505, Lonza) plated and cultured according to the manufacturer.
These cryopreserved DRG cells were prepared from freshly isolated and dissociated spinal cord dorsal root ganglia and comprise a normal distribution of neurons and glia (schwann cells).
Electrophysiology: Cells were used for electrophysiological recording in the 48 hours following rDRG isolation. Round small neurons (20-40 m in diameter) were selected for electrophysiology recordings, to select for small nociceptive neurons that propagate pain sensation in vivo and that are expressing both Kv7.2/3 and TRPV1 targets. Membrane excitability was monitored using current clamp. Positive current steps of different amplitude were injected (400 ms) to induce spikes trains before and following compound application.
The inhibitory potency of the newly designed compounds was studied on neuronal excitability in an experimental system of high physiological relevance, primary neonatal rat DRG neurons (Sprague Dawley neonatal; P2,3; R-DRG-505, Lonza). These cryopreserved DRG cells are prepared from freshly isolated and dissociated spinal cord dorsal root ganglia and comprise a normal distribution of neurons and glia (schwann cells).
The inhibitory potency was tested both on current-induced and Capsaicin-induced neuronal activity.

[4] = Metabolic stability in human liver microsomes (HLM Clint); type: in vitro ADME
hERG [5] = biological target: T1, hERG; test: cell-based
hTRPV1 [6] = biological target: T2, hTRPV1 (Homo sapiens (Human), UniProt Q8NER1); test: High content screen (HCS) Fluo-8 No Wash calcium flux assay, capsaicin activation, CHO cells expressing hTRPV1; type: cell-based; settings: CHO cells expressing hTRPV1, fluorescent HCS; read-out: TRPV1 IC50
T2 sequence (Q8NER1 whole entry): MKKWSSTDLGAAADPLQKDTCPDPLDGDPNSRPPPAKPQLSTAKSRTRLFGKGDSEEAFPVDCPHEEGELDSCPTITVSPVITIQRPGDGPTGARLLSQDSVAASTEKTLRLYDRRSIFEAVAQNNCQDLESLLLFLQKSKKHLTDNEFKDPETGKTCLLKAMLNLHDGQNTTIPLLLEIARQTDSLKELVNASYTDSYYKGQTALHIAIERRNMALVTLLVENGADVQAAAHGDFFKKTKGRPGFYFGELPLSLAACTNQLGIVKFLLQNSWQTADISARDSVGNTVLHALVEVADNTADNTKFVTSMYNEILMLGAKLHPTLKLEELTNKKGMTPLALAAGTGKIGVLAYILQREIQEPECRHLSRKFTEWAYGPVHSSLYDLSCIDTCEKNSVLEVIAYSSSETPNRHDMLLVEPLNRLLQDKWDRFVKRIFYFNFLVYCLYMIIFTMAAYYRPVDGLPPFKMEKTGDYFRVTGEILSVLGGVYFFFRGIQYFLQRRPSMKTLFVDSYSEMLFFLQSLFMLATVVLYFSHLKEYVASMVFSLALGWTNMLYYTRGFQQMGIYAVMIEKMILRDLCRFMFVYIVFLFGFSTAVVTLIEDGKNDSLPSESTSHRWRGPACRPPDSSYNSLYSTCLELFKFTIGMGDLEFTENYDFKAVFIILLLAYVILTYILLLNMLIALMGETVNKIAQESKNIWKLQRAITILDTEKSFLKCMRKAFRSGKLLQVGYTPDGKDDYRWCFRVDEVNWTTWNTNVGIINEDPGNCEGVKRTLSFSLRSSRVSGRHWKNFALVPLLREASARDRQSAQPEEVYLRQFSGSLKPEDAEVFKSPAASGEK

human Kv7.2/3 channels = human Kv7.2/3 channels (Homo sapiens (Human), UniProt O43525+O43526); test: High content screen (HCS) FLIPR Potassium (thallium flux) assay, CHO/hKv7.2/3 cell line; type: cell-based; settings: head prints IC50; channel activation in CHO/hKv7.2/3, fluorescent HCS; read-out: Kv7.2/7.3 IC50
Protocol: Cell culture: […] To maintain the stability of human Kv7.2/7.3 expression antibiotic selection was added (Puromycin g/ml). High content screen (HCS) using FLIPR Potassium Assay Kit: FLIPR Potassium Assay Kit ([…] FLIPR Potassium Assay Explorer Kits, Molecular Devices) was used with the CHO/hKv7.2/3 cell line to screen molecules against the hKv7.2/7.3 ion channel target. The assay exploits the permeability of thallium ions (Tl+) through potassium (K^+) channels. In this assay, Tl+ indicator dye is used to produce a bright fluorescent signal upon the binding to Tl+ conducted through the potassium channels. The intensity of the Tl+ signal is proportional to the number of potassium channels in the open state. Therefore, it provides a functional indication of the potassium channel activity. To activate the voltage-gate potassium channels, the cells were stimulated with a mixture of K+ and Tl+ to depolarize the cell membrane. The fluorescence increase in the assay represents the influx of Tl+ into the cell specifically through the potassium channel, providing a functional read-out of hKv7.2/3 activity using a fluorescent plate reader coupled with injectors used to activate the channels. […] Tecan Spark reader plate injectors were primed with Tl+ (1 mM Tl2SO4) or Tl++K+ (1 mM Tl2SO4; 5 mM K2SO4) for channel activation and data correction. […]

[7] = LogD measurement at pH 7.4; type: physicochemical
hTRPV1 [8] = biological target: T2, hTRPV1; test: TRPV1 electrophysiology in CHO cells co-expressing hKv7.2/3 and hTRPV1; type: cell-based; settings: also when co-applied with retigabine
Excerpt: To exemplify the functional coupling of Kv7.2/3 and TRPV1, stably expressing Kv7.2/3 cells were transfected with human TRPV1 and their response to current ramp to −40 mV (Kv activation) and capsaicin (TRPV1 activation) was examined electrophysiologically.

hERG [9] = biological target: T1, hERG; test: hERG FLIPR Potassium assay, CHO/hERG cell line; settings: at the concentration given as hERG IC50 bound
human sensory neurons = test: Spontaneous activity of human sensory neurons differentiated from hNPCs; type: cell-based; settings: 5 μM, reversible
Protocol: Cell culture and differentiation: Human PSC-derived neural progenitor cells (Stem Cell Catalog No. 70901 and 70902) were cultured and expanded on Matrigel coated 6-wells plates, using neuronal progenitor medium containing: Neurobasal media supplemented by non-essential amino-acids, 1%; Glutamax, 1%; B27, 2%, FGF2, 20 ng/ml). hNPC were then plated onto PDL and Matrigel coated 12 mm coverglass at a density of about 50,000 cells/well of a 6 well, in DMEM/F12; 10% KSR; 1% P/S and A83-01 (2 M) from days 0-5. From days 0-9 the medium contained also CHIR99021 (6 μM). From Day 3-9 the medium included R04929097 (2 μM) and SU5402 (3 μM). From day 9 and onwards, the media change (Neurobasal Media contains: NT-3; BDNF; NGF; GDNF) was performed every other day by replacing only 50% of the media after CO2 equilibrating. […]
Electrophysiology: To characterize the neuronal properties with electrophysiology recordings, round small neurons (20-40 μm in diameter) were selected from day 31 and onwards. Cells were monitored for their polarized negative membrane potential and for their ability to evoke consistent spikes train responses to repeated positive current injections as a mark of achieving electrical maturation before testing the effect of the tested compounds on neuronal excitability. Membrane excitability was monitored using current clamp. […]

[10] = test system: NGF-treated rat DRG neurons; test: Neuropathic model in rat DRGs (NGF pretreatment, capsaicin induced tetanic burst); type: cell-based; settings: NGF 100 ng/ml pretreatment, compound at 100 nM
Protocol: FIG. 8B presents representative data obtained in assays in which neurons were pretreated with NGF 100 ng/ml for 4-5 days. NGF Non-treated rat DRGs were stimulated by repeated capsaicin application with and without 421-6 at 2 μM (top panel) or 100 nM (Middle panel).
DRGs treated with NGF show tetanic action potential burst in response to CAP application, mimicking neuropathic like response. See, Background Art FIG. 8A. NGF enhances TRPV1 function using Calcium-dependent fluorescence, F, relative to maximal fluorescence, Fmax, as a function of time from a single HEK293 cell stably transfected with TrkA and transiently transfected with hTRPV1. Pulses of capsaicin (100 nM, applied as shown at top) elicited submaximal increases in [Ca]i. Exposure to NGF (100 ng/ml, see top) enhanced the capsaicin induced calcium increase. Arrows show responses used for calculation of sensitization ratio.

Kv7.3/5, Kv7.4 = settings: positive control, Kv7.3/5, Kv7.4 assay; read-out: Known IC50; cited from earlier work

CC(C)c1cc(Cl)cc(Cl)c1C(O)c1ccc(F)c(CC(=O)NCC2(O)CCC2)c1 (racemic) [Compound 533]
solubility kinetic at 10 min ([1]; HHBS buffer with 0.2% DMSO, aqueous with cosolvent or surfactant or cyclodextrin, kinetic from dmso stock, read-out: Kinetic Sol.): 41 µM (≈ 18.6 µg/mL)
inhibition at 1.5 h, 50 µM (hERG [2]): 0%
capsaicin-evoked rat DRGs spiking ([3]; 100 nM): inhibition is gained
current-evoked rat DRGs spiking ([3]; 100 nM): inhibition decreases
microsomal CLint [4]: 658 µL/min/mg
IC50 (hERG [5]): > 50 µM
IC50 (hTRPV1 [6]): 21.2 µM
IC50 (human Kv7.2/3 channels): 1.5 µM
LogD ([7]; lipid phase / aqueous phase, read-out: LogD): 4.36

CC(C)(C)c1ccc(/C=C/C(=O)Nc2ccc3c(c2)OCCO3)cc1 [AMG9810, reference compound]
reduction of Capsaicin evoked firing ([3]; 50 nM): about 50%
TRPV1-inhibition potency gain in cells co-expressing hKv7.2/3 and hTRPV1 (hTRPV1 [8]): failure to gain TRPV1-inhibition potency

COC[C@@H](CO)NC(=O)Cc1cc(Sc2c(Cl)cc(Cl)cc2C(C)C)ccc1F [Compound 414]
hERG, percent in parentheses beside the IC50 bound (hERG [9]): (0%)
HLM Clint [4]: 686 µL/min/mg

COC[C@@H](CO)NC(=O)Cc1cc(Sc2c(Cl)cc(F)cc2C(C)C)ccc1F [Compound 415]
Kinetic Sol. [1]: 26.7
spontaneous neuronal activity (human sensory neurons): significantly reduced
hERG, percent in parentheses beside the IC50 bound (hERG [9]): (0%)
HLM Clint [4]: 839 µL/min/mg
LogD [7]: 4.25

CC(C)c1cc(Cl)cc(Cl)c1C(=O)c1ccc(F)c(CC(=O)NCC(C)(C)O)c1 [Compound 417-4]
Kinetic Sol. [1]: 66
hERG, percent in parentheses beside the IC50 bound (hERG [9]): (0%)
HLM Clint [4]: 91.84 µL/min/mg
LogD [7]: 4.08

CC(C)c1cc(Cl)cc(Cl)c1C(O)c1ccc(F)c(CC(=O)NCC(C)(C)O)c1 (stereo not drawn) [Compound 417]
hERG, percent in parentheses beside the IC50 bound (hERG [9]): (0%)
HLM Clint [4]: 89.1 µL/min/mg

Cc1cn(-c2ccc(F)c(CC(=O)NCC(C)(C)O)c2)c2c(Cl)cc(Cl)cc12 [Compound 421-6]
hERG, percent in parentheses beside the IC50 bound (hERG [9]): (0%)
inhibition of current induced AP activity ([3]; 100 nM): 10.1±3.4%
inhibition of current induced AP responses ([3]; 500 nM): 51.2±8.4%
inhibition of the capsaicin induced AP response ([3]; 500 nM): 86.5±8.4%
inhibition of AP response to Capsaicin activation ([3]; 2 μM): 97.9±2.1%
inhibition of AP response to current activation ([3]; 2 μM): 77.7±5.6%
capsaicin induced tetanic action potential burst [10]: alleviates

CC(C)c1cc(Cl)cc(Cl)c1C(=O)c1ccc(F)c(CC(=O)NCC2(O)CCC2)c1 [Compound 569]
Kinetic Sol. [1]: 27
HLM Clint [4]: 120 µL/min/mg
LogD [7]: 4.47

CC(C)c1cc(Cl)cc(Cl)c1C(=O)c1ccc(F)c(CC(=O)NCC2(O)CC2)c1 [Compound 573]
Kinetic Sol. [1]: 24
HLM Clint [4]: 441 µL/min/mg
LogD [7]: 4.34

O=C(Cc1cncc(-n2cc(Cl)c3cc(Cl)cc(Cl)c32)c1)NCCO [Compound 649]
Kinetic Sol. [1]: 10
HLM Clint [4]: 27.3 µL/min/mg
LogD [7]: 4.19

O=C(Cc1cncc(-n2cc(Cl)c3cc(Cl)cc(Cl)c32)c1)N[C@@H]1COC[C@H]1O [Compound 661]
Kinetic Sol. [1]: 40
hERG, percent in parentheses beside the IC50 bound (hERG [9]): (0%)
HLM Clint [4]: 72 µL/min/mg
LogD [7]: 3.55

O=C(Cc1cncc(-n2cc(Cl)c3cc(Cl)cc(Cl)c32)c1)N[C@H]1COC[C@@H]1O [Compound 663]
Kinetic Sol. [1]: 26
HLM Clint [4]: 53.6 µL/min/mg
LogD [7]: 3.52

CCOC(=O)Nc1ccc(NCc2ccc(F)cc2)cc1N [Retigabine, N-(2-amino-4-(4-fluorobenzylamino)-phenyl)carbamic acid ethyl ester]
IC50 (Kv7.3/5, Kv7.4): 1.5 to 5 µM
